Data: US9737512B2, “Methods and compositions for treating chronic pain” (THE BOARD OF REGENTS OF THE UNIVERSITY OF TEXAS SYSTEM, priority 2015, dated 2017)
pIC50: −log10 of the molar value.

What was measured:
[1] = system: ovalbumin-induced oral tolerance; settings: daily 10 mg/kg IP or 50 mg/kg oral gavage; cited from earlier work
[2] = system: paclitaxel-induced mechanical allodynia; assay: Paclitaxel (chemotherapy)-induced mechanical allodynia, von Frey; format: in vivo, mice
Protocol: FIG. 4. Effect of ESI-09 on chemotherapy-induced mechanical allodynia. Mice (n=5/group) were treated with paclitaxel (10 mg/kg, Monday, Wednesday and Friday) for two weeks. ESI-09 (20 mg/kg) or vehicle was given by oral gavage for 6 days starting on the first day (A) or 10 days (B) after completion of paclitaxel treatment. The sensitivity to mechanical stimulation was determined in wild-type (n=5) and Epac1−/− (n=4) in the same paclitaxel model (C). Mechanical allodynia was monitored by von Frey hair using the up and down method. Data are expressed as means±SEM. *p<0.05, ** p<0.01.
Chemotherapy-induced peripheral neuropathy is a frequent side effect of cancer treatment, and currently there are no FDA-approved drugs to treat or prevent chemotherapy-induced neuropathy. The model of paclitaxel-induced mechanical allodynia to investigate the potential effect of ESI-09 on chemotherapy-induced neuropathy. Mice were treated with three doses (10 mg/kg/dose) of paclitaxel per week for 2 weeks. Administration of ESI-09 was started on the first day after completion of paclitaxel treatment when there was clear allodynia present. Mice were treated daily with ESI-09 (20 mg/kg) or vehicle by oral gavage for 6 days. […] The beneficial effect of treatment was detectable until 72 hours after the last dose of ESI-09. In a second set of experiments, ESI-09 treatment was delayed until 10 days after the completion of paclitaxel treatment.

[3] = system: SNI-induced mechanical allodynia; assay: Spared nerve injury (SNI)-induced mechanical allodynia, von Frey; format: in vivo, mice
Protocol: FIG. 3. Effect of ESI-09 on Spared nerve injury (SNI)-induced mechanical allodynia. Spared nerve injury was performed on WT mice and mice were treated daily with ESI-09 (50 mg/kg) or vehicle by oral gavage for 6 days starting on the 3rd day after SNI. Mechanical allodynia was monitored in (A) ipsi- and (B) contralateral paw using von Frey hairs and the up and down method at 24 hours after ESI-treatment (n=7 per group). Data are expressed as 50% paw withdrawal thresholds calculated as described in the methods section and represent mean±SEM. n=7/group. *p<0.05, **p<0.01 vs. vehicle group.
It has been shown that EPAC1−/− mice are protected against neuropathic pain in a model of nerve injury. The effect of ESI-09 in the spared nerve injury (SNI) model of chronic neuropathic pain was examined. […] As expected, mice treated with vehicle developed unilateral mechanical allodynia ([…]). […] The beneficial effect of ESI-09 was maintained for 48 hours after the last dose.

[4] = system: CFA-induced heat hyperalgesia; assay: CFA-induced heat hyperalgesia, Hargreaves test; format: in vivo, mice
Protocol: FIG. 2. Effect of ESI-09 on CFA-induced heat hyperalgesia. (A) Mice (n=4/group) received 5 μl CFA intraplantarly in the hind paws and were treated with vehicle or ESI-09 20 mg/kg (n=4) daily by oral gavage for 6 days starting after CFA injection. Heat hyperalgesia was determined using the Hargreaves test and is expressed as heat-withdrawal latency in seconds. (B) CFA-induced heat hyperalgesia in WT and Epac1−/− mice. (C) Heat sensitivity of saline treated mice with 20 mg/kg ESI-09. Data represent mean±SEM (n=4 per group).
Intraplantar administration of CFA also induces significant heat hyperalgesia (FIG. 2A). However, no effect of ESI-09 (20 mg/kg) on heat hyperalgesia was detected (FIG. 2A). Consistently, CFA-induced heat hyperalgesia was not different between WT and Epac1−/− mice.

[5] = system: pancreatic cancer cell lines; settings: cited from earlier work
[6] = system: CFA-induced mechanical allodynia; assay: CFA-induced mechanical allodynia, von Frey test; format: in vivo, mice
Protocol: FIG. 1. Effect of ESI-09 in CFA-induced inflammatory mechanical allodynia. (A) Mice (n=4/group) received 5 μl CFA intraplantarly in the hind paws and were treated with vehicle or ESI-09 20 mg/kg (n=4) daily by oral gavage for 6 days starting immediately after CFA injection. Mechanical allodynia was quantified with von Frey Hairs using the up and down method at 24 hours after ESI treatment. (B) CFA-induced mechanical allodynia in WT, heterozygous, and homozygous Epac1-knockout mice. The sensitivity to mechanical stimulation was followed over time in wild-type (WT, n=3), Epac1^+/− (HE, n=6) and Epac1^−/− (HO, n=5) mice after intraplantar injection of 5 μl CFA. […] (D) Dose-response curve for the effect of ESI-09 (5, 20, or 50 mg/kg). Treatment was started on the 3rd day after CFA administration (n=4/group) (E) Mechanical allodynia was measured in WT mice with 6 days treatments of ESI-09 20 (n=3) and 50 mg/kg (n=4) to control for a potential effect on baseline mechanical sensitivity. Data are expressed as 50% withdrawal threshold in grams calculated as described in the methods section and represent mean±SEM. […] In FIG. 1B, *p<0.05, ** p<0.01 for WT versus HO, #p<0.05, ##P<0.01 for WT versus HE, +p<0.05, ++p<0.01 for HE versus HO. In FIG. 1D, **p<0.01 and ##p<0.01 are ESI-09 50 mg/kg and ESI-09 20 mg/kg compared to the Vehicle treated mice.
To determine whether the Epac inhibitor ESI-09 can be used to treat inflammatory pain, the CFA model was used. CFA was administered intraplantarly and mice were treated with ESI-09 20 mg/kg daily by oral gavage for 6 days starting immediately after injection of CFA. Mechanical allodynia was examined using the von Frey test.
ESI-09 20 mg/kg was administered orally three days after CFA. […] The effect of ESI-09 was dose-dependent (FIG. 1D). […] The beneficial effect of ESI-09 was detectable until at least 24 hours after the last dose. No effect of daily oral administration of 50 mg/kg ESI-09 on mechanical sensitivity in saline treated control mice was observed ([…]).

[7] = system: pancreatic cell lines; settings: cited from earlier work
[8] = molecular target: T1, EPAC2 (Mus musculus, UniProt Q9EQZ6); settings: cited from earlier work
T1 sequence (Q9EQZ6 1-1011): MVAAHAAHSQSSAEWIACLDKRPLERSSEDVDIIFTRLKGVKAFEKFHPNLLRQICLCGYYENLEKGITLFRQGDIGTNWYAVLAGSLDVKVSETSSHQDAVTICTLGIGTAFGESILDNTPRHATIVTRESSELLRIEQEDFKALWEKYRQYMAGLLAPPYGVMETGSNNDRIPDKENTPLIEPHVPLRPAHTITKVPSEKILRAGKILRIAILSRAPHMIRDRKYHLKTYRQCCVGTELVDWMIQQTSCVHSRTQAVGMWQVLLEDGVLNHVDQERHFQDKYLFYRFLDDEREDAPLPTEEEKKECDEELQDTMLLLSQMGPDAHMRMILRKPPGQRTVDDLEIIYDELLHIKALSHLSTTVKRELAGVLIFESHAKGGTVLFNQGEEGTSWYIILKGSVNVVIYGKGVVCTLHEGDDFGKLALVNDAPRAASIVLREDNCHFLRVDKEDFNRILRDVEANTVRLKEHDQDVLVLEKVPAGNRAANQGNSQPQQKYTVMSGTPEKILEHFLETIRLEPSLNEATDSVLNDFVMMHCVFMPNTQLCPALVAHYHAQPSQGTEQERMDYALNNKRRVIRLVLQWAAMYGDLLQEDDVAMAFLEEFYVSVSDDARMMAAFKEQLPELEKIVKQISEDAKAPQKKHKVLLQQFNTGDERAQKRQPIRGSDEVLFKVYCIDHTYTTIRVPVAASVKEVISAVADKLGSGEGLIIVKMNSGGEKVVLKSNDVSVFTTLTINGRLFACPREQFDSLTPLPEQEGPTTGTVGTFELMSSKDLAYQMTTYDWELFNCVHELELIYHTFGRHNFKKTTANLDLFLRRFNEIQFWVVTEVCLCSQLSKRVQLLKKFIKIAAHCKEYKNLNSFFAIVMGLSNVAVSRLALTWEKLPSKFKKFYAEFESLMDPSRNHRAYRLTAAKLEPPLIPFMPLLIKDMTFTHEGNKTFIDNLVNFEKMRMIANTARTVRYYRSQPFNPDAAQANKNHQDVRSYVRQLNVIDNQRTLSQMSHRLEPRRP

[9] = system: PKA; settings: at 25 μM; cited from earlier work
[10] = system: rickettsioses; settings: daily 10 mg/kg IP or 50 mg/kg oral gavage, mice; cited from earlier work
[11] = 50 mg/kg oral gavage daily 6 days, starting 3 days after SNI

CC(C)(C)c1cc(C(=O)/C(C#N)=N/Nc2cccc(Cl)c2)no1 [ESI-09, 3-(5-tert-Butyl-isoxazol-3-yl)-2-[(3-chlorophenyl)-hydrazono]-3-oxo-propionitrile]
ovalbumin-induced oral tolerance (recapitulates EPAC1 knockout phenotype) [1]: compromising ovalbumin-induced oral tolerance | paclitaxel-induced mechanical allodynia ([2]; 20 mg/kg oral gavage daily 6 days, started first day after completion of paclitaxel): almost completely rescued | time beneficial effect detectable after the last dose ([2]; paclitaxel model, 20 mg/kg): 72 h | paclitaxel-induced mechanical allodynia, later phase ([2]; treatment delayed until 10 days after completion of paclitaxel): significantly inhibited | SNI-induced mechanical allodynia, ipsilateral paw [3, 11]: almost completely reversed | normal mechanical sensitivity, contralateral paw [3, 11]: without affecting | time beneficial effect maintained after the last dose ([3]; SNI model, 50 mg/kg): 48 h | CFA-induced heat hyperalgesia ([4]; 20 mg/kg daily oral gavage): no effect | heat sensitivity of naïve animals ([4]; naïve animals): did not affect | migration of pancreatic cancer cell lines [5]: inhibits | CFA-induced mechanical allodynia ([6]; 5 mg/kg (lowest dose), started 3rd day after CFA): did not observe an effect | CFA-induced mechanical allodynia ([6]; 20 mg/kg daily oral gavage 6 days, starting immediately after CFA): strongly inhibited | time inhibition is maintained after administration ([6]; 20 mg/kg oral, started three days after CFA): at least 24 h | inhibition of CFA-induced mechanical allodynia at 2 hours ([6]; 20 mg/kg oral, started three days after CFA, 2 hours after administration): Partial inhibition | inhibition of CFA-induced mechanical allodynia at 6 hours ([6]; 20 mg/kg oral, started three days after CFA, 6 hours after administration): fully developed | CFA-induced mechanical allodynia ([6]; 20 mg/kg, started 3rd day after CFA): significantly reduced | mechanical sensitivity in saline treated control mice ([6]; 50 mg/kg daily oral): No effect | CFA-induced mechanical allodynia ([6]; 50 mg/kg, started 3rd day after CFA): significantly reduced | dose dependence of effect on CFA-induced mechanical allodynia ([6]; 5, 20 or 50 mg/kg, started 3rd day after CFA): dose-dependent | time beneficial effect detectable after the last dose ([6]; CFA model): at least 24 hours | mechanical sensitivity of control mice ([6]; ESI-09 given to control mice (no CFA)): did not have any effect | insulin secretion [7]: blocks | phosphorylation of Akt [7]: blocks | pIC50 [8]: 5.85 | activity against PKA [9]: no activity | protection from lethal rickettsioses (recapitulates EPAC1 knockout phenotype) [10]: protecting mice from lethal rickettsioses
